# Measured values reported in patent US20210369684A1 (MOUNT TAM THERAPEUTICS, INC., priority 2018, published 2021).
# Test: Oral bioavailability
# Settings: in vivo
# From the text: In order to measure bioavailability in vivo, a compound may be administered to a test animal (e.g. mouse or rat) both intraperitoneally (i.p.) or intravenously (i.v.) and orally (p.o.) and blood samples are taken at regular intervals to examine how the plasma concentration of the drug varies over time. The time course of plasma concentration over time can be used to calculate the absolute bioavailability of the compound as a percentage using standard models. An example of a typical protocol is described below. […] The time-course of plasma or whole blood concentrations can then be used to derive key parameters such as the area under the plasma or blood concentration-time curve (AUC-which is directly proportional to the total amount of unchanged drug that reaches the systemic circulation), the maximum (peak) plasma or blood drug concentration, the time at which maximum plasma or blood drug concentration occurs (peak time), additional factors which are used in the accurate determination of bioavailability include: the compound's terminal half-life, total body clearance, steady-state volume of distribution and F %. These parameters are then analyzed by non-compartmental or compartmental methods to give a calculated percentage bioavailability, for an example of this type of method see Gallant-[…] et al, 2000 and […] et al, 1998, and references therein.
structure (smiles),measurement,value
"CO[C@H]1C[C@@H]2CC[C@@H](C)[C@@](O)(C2)C(=O)C(=O)N2CCCC[C@H]2C(=O)O[C@H]([C@H](C)C[C@H]2C[C@H]3C[C@@H]2C[C@@H]3O)CC(=O)[C@H](C)/C=C(\C)[C@@H](O)[C@@H](OC)C(=O)[C@H](C)C[C@H](C)/C=C/C=C/C=C/1C [Formula II, C37-[(1R,2S,4R,5S)-5-hyhroxybicyclo[2.2.1]heptane] rapamycin]",bioavailability,~47%
